Reference: ChEMBL document CHEMBL1135924, “Structure-based design and synthesis of 2-benzylidene-benzofuran-3-ones as flavopiridol mimics” (J Med Chem, 2002)

What was measured:
[1] = molecular target: Cyclin-dependent kinase 4 (Homo sapiens, UniProt P11802); test: Inhibition of cyclin D1 activated Cyclin-dependent kinase 4 (CDK4)
[2] = molecular target: Cyclin-dependent kinase 2 (Homo sapiens, UniProt P24941); test: Inhibition of cyclin A activated Cyclin-dependent kinase 2 (CDK2)
[3] = molecular target: Cyclin-dependent kinase 1 (Homo sapiens, UniProt P06493); test: Inhibition of cyclin B activated Cyclin-dependent kinase 1 (CDK1)
[4] = molecular target: Vascular endothelial growth factor receptor 2 (Homo sapiens) (UniProt P35968); test: Inhibition of Vascular endothelial growth factor receptor 2 (VEGF-KDR) at 10 uM
[5] = molecular target: Glycogen synthase kinase-3 (Homo sapiens, UniProt P49840+P49841); test: inhibition of Glycogen synthase kinase-3; assay type: protein assay
[6] = molecular target: Epidermal growth factor receptor (Homo sapiens) (UniProt P00533); test: Inhibition of Epidermal growth factor receptor at 10 uM
[7] = molecular target: T1, Protein kinase C alpha type (Homo sapiens, UniProt P17252); test: Inhibition of Protein kinase C alpha at 10 uM
HCT-116 = test: Inhibition of HCT116 (transformed colon) cell proliferation; assay type: functional, cell-based; details: Homo sapiens
[8] = molecular target: T1, Protein kinase C alpha type; test: Inhibition of Protein kinase C alpha

Chain of Vascular endothelial growth factor receptor 2 (Homo sapiens) (P35968 whole entry): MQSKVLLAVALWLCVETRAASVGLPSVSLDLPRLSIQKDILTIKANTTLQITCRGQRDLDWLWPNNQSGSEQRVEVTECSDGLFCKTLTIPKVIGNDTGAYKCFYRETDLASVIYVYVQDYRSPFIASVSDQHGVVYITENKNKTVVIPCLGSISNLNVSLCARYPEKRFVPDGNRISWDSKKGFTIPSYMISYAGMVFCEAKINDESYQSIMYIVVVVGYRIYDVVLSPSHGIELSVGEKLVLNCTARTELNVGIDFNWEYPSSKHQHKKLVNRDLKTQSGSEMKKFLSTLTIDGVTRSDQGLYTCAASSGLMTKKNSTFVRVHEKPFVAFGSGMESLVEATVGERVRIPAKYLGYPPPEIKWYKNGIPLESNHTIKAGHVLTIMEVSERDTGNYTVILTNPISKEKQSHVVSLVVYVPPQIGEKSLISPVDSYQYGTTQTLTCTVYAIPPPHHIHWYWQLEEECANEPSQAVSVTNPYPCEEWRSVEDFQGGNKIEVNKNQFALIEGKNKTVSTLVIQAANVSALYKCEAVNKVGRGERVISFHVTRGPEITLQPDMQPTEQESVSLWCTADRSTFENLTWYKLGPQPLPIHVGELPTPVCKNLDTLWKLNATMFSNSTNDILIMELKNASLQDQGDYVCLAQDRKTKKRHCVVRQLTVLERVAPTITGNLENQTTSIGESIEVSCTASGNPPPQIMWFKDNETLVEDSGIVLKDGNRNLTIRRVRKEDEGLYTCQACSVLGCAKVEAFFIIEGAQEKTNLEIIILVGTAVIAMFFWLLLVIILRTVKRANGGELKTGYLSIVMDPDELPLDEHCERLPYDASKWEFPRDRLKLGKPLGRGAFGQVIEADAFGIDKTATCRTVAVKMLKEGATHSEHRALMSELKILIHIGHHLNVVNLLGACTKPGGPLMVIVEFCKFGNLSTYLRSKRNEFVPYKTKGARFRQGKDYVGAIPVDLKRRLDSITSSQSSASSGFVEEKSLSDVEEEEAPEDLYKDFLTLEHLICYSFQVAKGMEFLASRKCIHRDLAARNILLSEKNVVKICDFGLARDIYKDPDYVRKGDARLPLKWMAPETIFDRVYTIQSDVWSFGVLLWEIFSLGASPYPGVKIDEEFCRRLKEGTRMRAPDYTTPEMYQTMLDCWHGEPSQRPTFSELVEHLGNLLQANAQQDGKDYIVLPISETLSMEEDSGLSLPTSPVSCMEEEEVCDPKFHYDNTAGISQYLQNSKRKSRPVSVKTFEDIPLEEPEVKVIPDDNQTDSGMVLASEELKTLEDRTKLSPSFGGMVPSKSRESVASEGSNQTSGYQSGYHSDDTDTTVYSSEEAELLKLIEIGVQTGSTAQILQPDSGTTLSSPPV
Chain of Cyclin-dependent kinase 4 (P11802 whole entry): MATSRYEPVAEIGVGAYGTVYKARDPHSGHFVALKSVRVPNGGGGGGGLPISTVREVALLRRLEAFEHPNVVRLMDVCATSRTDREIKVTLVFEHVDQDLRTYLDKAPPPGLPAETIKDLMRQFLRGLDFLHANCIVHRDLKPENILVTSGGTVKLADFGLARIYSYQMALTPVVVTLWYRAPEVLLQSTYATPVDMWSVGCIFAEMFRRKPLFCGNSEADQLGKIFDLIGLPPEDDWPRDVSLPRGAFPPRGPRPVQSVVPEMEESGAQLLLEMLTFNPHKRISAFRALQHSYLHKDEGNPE
Chain of Epidermal growth factor receptor (Homo sapiens) (P00533 whole entry): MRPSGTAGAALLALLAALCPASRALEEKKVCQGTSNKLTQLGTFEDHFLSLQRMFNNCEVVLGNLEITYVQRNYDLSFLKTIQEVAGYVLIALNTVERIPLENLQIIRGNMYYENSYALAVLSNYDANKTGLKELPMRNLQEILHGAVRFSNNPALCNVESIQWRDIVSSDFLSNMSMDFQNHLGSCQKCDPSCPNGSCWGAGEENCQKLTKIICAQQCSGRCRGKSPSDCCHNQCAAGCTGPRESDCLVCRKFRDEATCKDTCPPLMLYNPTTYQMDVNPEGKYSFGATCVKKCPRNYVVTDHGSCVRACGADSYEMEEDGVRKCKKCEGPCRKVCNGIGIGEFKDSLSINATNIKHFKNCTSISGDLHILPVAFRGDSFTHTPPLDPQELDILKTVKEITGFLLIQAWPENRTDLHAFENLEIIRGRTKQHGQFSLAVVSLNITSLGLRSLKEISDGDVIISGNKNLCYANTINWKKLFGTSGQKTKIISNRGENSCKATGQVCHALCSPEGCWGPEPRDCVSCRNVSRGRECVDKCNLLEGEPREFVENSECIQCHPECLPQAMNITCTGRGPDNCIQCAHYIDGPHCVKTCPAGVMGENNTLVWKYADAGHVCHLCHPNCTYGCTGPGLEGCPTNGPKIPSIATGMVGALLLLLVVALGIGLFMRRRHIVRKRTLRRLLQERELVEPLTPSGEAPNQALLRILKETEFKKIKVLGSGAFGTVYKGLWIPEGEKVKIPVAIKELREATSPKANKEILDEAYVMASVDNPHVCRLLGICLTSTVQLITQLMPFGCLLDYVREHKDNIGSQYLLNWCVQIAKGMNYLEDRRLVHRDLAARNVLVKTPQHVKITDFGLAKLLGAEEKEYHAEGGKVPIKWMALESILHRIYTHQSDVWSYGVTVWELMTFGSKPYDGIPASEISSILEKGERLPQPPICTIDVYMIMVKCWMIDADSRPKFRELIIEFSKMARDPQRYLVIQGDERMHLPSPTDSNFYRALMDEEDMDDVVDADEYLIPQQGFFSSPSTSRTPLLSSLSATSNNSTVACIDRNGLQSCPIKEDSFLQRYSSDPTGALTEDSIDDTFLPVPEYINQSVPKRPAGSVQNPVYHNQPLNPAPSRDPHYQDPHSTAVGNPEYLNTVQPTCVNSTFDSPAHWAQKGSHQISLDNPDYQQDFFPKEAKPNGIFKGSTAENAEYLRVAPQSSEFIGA
Chain of Cyclin-dependent kinase 1 (P06493 whole entry): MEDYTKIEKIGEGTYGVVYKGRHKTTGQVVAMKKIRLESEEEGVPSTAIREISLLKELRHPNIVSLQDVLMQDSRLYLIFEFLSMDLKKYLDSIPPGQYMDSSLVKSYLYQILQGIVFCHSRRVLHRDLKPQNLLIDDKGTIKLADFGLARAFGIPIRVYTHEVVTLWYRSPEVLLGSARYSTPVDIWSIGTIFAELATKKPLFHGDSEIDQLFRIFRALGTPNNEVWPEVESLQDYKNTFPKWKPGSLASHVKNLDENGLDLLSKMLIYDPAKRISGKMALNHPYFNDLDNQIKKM

CN1CCC(c2c(O)cc(O)c3c2O/C(=C\c2ccc(N4CCN(C)CC4)cc2)C3=O)CC1
IC50 [1]: 1920 nM | IC50 [2]: 2980 nM | IC50 [3]: 800 nM | inhibition [4]: 25% | IC50 [5]: 1750 nM | inhibition [6]: 29% | inhibition [7]: 21% | IC50 (HCT-116): 24800 nM

CN1CCC(c2c(O)cc(O)c3c2O/C(=C\c2ccc([N+](=O)[O-])cc2)C3=O)CC1
IC50 [1]: 2210 nM | IC50 [2]: 310 nM | inhibition [4]: 37% | IC50 [5]: 4800 nM | inhibition [6]: 43% | IC50 [8]: 22000 nM | IC50 (HCT-116): 35600 nM

CN1CCC(c2c(O)cc(O)c3c2O/C(=C\c2ccccc2)C3=O)CC1
IC50 [1]: 4410 nM | IC50 [2]: 1280 nM | IC50 [3]: 110 nM | inhibition [4]: 2% | IC50 [5]: 4200 nM | inhibition [6]: 38% | inhibition [7]: 19% | IC50 (HCT-116): > 50000 nM

CN1CCC(c2c(O)cc(O)c3c2O/C(=C\c2ccc(S(N)(=O)=O)cc2)C3=O)CC1
IC50 [1]: 1870 nM | IC50 [2]: 30 nM | IC50 [3]: 9 nM | inhibition [4]: 25% | IC50 [5]: 3700 nM | inhibition [6]: 36% | inhibition [7]: 42% | IC50 (HCT-116): > 50000 nM

CN1CCC(c2c(O)cc(O)c3c2O/C(=C\c2ccccc2Cl)C3=O)CC1
IC50 [1]: 25300 nM | IC50 [2]: 3970 nM | IC50 [3]: 600 nM | inhibition [4]: 17% | IC50 [5]: 10000 nM | inhibition [7]: 22% | IC50 (HCT-116): 20100 nM
